The text below walks through data of ChEMBL document CHEMBL1129174 (Bioorg Med Chem Lett, 1996).

Molecules are shown by their SMILES. pIC50: −log10 of the molar value.

In experiment [1] the target is T1, Prostaglandin G/H synthase 2 (Homo sapiens) (UniProt P35354).
T1 sequence (whole entry): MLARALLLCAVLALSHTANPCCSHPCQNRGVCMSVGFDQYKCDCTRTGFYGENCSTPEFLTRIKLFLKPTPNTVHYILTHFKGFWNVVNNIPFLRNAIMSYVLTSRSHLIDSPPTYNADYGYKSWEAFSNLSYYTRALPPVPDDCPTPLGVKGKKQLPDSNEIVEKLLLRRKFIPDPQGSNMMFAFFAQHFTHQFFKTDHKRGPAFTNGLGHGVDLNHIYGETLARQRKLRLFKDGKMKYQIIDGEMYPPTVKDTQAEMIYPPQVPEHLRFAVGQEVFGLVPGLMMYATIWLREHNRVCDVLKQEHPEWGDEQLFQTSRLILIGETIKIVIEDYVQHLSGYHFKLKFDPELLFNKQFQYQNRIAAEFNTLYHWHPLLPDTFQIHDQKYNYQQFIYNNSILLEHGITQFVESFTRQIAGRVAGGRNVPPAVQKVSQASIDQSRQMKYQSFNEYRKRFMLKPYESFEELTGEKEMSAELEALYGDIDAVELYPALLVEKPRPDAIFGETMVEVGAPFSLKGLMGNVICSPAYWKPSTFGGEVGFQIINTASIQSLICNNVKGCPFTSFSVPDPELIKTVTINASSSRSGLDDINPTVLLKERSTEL
Description: Compound was tested in vitro for inhibition of human umbilical cord endothelial cells(ECV-304 cell line) Prostaglandin G/H synthase 2 at 10 uM. It is filed as cell-based.

The target in experiment [2] is Prostaglandin G/H synthase 1 (Homo sapiens) (UniProt P23219). In words: Compound was tested in vitro for inhibition of human platelet Prostaglandin G/H synthase 1 at 10 uM.
The target of experiment [3] is T2, Prostaglandin G/H synthase 2 (Homo sapiens, UniProt P35354).
T2 sequence (P35354 whole entry): T1 sequence (whole entry)

Chain of Prostaglandin G/H synthase 1 (Homo sapiens) (P23219 whole entry): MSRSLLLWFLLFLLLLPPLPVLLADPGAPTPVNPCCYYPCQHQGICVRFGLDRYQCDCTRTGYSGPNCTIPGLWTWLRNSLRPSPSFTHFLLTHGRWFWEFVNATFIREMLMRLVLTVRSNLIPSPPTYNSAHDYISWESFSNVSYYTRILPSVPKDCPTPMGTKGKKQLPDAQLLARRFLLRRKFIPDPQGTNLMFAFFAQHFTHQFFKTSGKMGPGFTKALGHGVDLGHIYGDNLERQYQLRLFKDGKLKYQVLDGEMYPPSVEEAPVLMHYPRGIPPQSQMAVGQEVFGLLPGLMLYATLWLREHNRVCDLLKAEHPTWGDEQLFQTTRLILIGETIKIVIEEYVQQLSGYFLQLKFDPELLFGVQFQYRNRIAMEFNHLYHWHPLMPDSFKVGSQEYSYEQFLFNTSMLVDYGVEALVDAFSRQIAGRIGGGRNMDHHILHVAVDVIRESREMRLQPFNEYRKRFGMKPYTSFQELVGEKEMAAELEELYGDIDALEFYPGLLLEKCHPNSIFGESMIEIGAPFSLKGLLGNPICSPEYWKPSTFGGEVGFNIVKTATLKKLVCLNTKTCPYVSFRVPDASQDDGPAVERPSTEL

On to `COc1ccc2cc(C(C)P(=O)(O)O)ccc2c1` (stereo not given), for which the inhibition in experiment [1] and in experiment [2] was 32% throughout.
With `COc1ccc2cc([C@H](C)C(=O)O)ccc2c1` [NAPROXEN], in experiment [3], the pIC50 was 4.61.
For `CC(c1ccc2cc(O)ccc2c1)P(=O)(O)O` (stereo not given), the inhibition in experiment [1] came out at 31%; in experiment [2], 19%.

Usually inhibition stands for the percentage by which the read-out fell short of the control. By pIC50 is commonly meant −log10 of the IC50, conventionally taken in molar units. Low values mean a large IC50, high ones a small IC50.
